{"source": "patent US20250025473A1", "about": "(priority 2021, published 2025)", "key": {"intracellular Ca2+": {"test_system": "intracellular Ca2+", "test": "Calcium kinetic measurements (Fura-2) after HSV exposure", "assay_type": "cell-based, human", "conditions": "10 μM, HaCat", "description": "The cells were then washed, lysed and Western blots of cell lysates prepared and probed with a mAb to gD as a marker of cell-bound virus and anti-3-actin as a loading control. […] Representative responses are shown for the first 30 minutes (left) and the mean calcium released over the first 3 minutes and then the extended response in the first hour following viral exposure were calculated from 4 wells in 3 independent experiments, each containing 5×10^4 cells (right). Asterisks indicate statistically significant differences by ANOVA (*, p<0.05, ** p<0.01, *** p<0.001) relative to control cells (mock-infected, DMSO). […] Nuclei were stained blue with DAPI. Images are representative of 2 independent experiments. […] Nuclei are stained blue (DAPI). Images were obtained with ZeissLive/DuoScan (objective 100×1.4, bar=10 μm) are representative of 2 independent experiments; quantification is shown in FIG. 11.\nThe cells were then transferred to SpectraMax® MF^e temperature-regulated chamber at 37° C. […] An intracellular calibration was performed with each experiment by determining the fluorescence ratio (340:380) in the presence of Ca-free 10 mM K2EGTA buffer (Rmin) and 10 mM CaEGTA buffer containing 10 μM ionomycin (Rmax) (C-3008, Calcium Calibration Buffer Kit #1, Invitrogen Molecular Probes™)."}, "PLSCR1 [1]": {"test_system": "PLSCR1", "assay_type": "cell-based, monkey", "conditions": "Vero, 30 minutes; drugs 10 μM each"}, "ABL1": {"molecular_target": "ABL1 (Homo sapiens, UniProt P00519)", "sequence (P00519 whole entry)": "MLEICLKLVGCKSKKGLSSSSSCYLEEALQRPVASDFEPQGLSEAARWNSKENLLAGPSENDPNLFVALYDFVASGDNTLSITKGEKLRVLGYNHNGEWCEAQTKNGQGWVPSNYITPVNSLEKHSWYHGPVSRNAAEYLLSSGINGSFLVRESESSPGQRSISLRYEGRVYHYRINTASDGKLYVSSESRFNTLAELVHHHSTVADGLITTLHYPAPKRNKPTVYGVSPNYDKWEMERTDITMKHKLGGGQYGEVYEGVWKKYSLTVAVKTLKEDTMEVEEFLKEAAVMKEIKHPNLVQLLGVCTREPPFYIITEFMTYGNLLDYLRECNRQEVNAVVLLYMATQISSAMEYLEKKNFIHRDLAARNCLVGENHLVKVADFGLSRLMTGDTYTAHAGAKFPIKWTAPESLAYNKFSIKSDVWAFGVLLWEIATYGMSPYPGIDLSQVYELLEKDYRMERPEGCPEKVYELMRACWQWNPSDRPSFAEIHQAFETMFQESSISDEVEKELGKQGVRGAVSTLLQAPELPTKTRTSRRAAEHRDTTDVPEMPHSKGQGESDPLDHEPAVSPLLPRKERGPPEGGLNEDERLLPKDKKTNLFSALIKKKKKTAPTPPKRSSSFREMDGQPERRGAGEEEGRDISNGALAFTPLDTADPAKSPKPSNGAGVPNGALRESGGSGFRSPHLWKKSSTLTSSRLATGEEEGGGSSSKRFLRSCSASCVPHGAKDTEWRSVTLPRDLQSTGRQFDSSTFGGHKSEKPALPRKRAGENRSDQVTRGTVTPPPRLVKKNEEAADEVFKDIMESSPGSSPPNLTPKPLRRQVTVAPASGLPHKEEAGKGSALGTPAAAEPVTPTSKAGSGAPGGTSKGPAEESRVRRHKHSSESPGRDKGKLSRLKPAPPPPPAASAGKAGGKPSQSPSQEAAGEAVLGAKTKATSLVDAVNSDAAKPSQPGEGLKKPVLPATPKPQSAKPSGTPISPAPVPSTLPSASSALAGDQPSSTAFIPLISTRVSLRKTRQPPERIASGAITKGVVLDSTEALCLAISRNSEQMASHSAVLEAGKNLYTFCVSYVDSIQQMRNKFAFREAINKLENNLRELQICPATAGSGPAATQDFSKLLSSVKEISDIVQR", "test": "HotSpot in vitro kinase assay, ABL1", "conditions": "read-out: Compound IC50, ABL1; in vitro kinase activity"}, "PLSCR1 [2]": {"test_system": "PLSCR1", "test": "PLSCR1 phosphorylation after HSV-2 (immunoprecipitation/Western)", "assay_type": "cell-based, human", "conditions": "10 μM, HaCat, 30 minutes"}, "VSV-EBOV-GP": {"test_system": "VSV-EBOV-GP", "assay_type": "cell-based"}, "[3]": {"test_system": "VSV-S (VSV pseudotyped with SARS-CoV-2 spike protein)", "assay_type": "cell-based"}, "[4]": {"test_system": "phosphatidylserine (PtdS) and Akt", "test": "Translocation of PtdS and Akt to the outer leaflet after HSV-2 (confocal, non-permeabilized)", "assay_type": "cell-based, human", "conditions": "10 μM, HaCat, HSV-2(G)"}, "PDPK1": {"molecular_target": "T1, PDPK1 (Homo sapiens, UniProt O15530)", "T1 construct": "purchased Reaction Biology Corporation", "T1 sequence (O15530 1-556)": "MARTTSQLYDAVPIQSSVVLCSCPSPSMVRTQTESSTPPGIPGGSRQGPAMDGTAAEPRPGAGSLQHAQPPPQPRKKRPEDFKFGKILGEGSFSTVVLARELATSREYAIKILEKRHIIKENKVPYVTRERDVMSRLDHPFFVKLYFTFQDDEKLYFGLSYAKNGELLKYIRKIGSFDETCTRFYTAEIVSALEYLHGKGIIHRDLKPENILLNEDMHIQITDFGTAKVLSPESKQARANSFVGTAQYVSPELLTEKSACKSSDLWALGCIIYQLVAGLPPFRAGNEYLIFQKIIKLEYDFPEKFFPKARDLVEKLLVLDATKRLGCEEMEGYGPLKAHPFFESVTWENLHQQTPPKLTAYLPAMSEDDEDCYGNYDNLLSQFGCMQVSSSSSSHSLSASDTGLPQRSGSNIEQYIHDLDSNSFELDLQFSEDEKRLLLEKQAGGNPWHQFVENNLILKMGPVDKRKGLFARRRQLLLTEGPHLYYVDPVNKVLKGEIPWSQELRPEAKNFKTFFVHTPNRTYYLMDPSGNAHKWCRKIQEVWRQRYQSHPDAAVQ", "test": "HotSpot in vitro kinase assay, PDPK1", "assay_type": "biochemical"}, "Akt, PDPK1": {"test_system": "Akt, PDPK1", "assay_type": "cell-based, monkey", "conditions": "10 μM, Vero, VSV-S, 30 and 60 minutes"}, "[5]": {"test_system": "phosphorylated Akt (pAkt T308)", "assay_type": "cell-based, human"}, "VSV-G": {"test_system": "VSV-G", "assay_type": "cell-based"}, "AKT3": {"molecular_target": "T2, AKT3 (Homo sapiens, UniProt Q9Y243)", "T2 construct": "purchased Reaction Biology Corporation", "T2 sequence (Q9Y243 whole entry)": "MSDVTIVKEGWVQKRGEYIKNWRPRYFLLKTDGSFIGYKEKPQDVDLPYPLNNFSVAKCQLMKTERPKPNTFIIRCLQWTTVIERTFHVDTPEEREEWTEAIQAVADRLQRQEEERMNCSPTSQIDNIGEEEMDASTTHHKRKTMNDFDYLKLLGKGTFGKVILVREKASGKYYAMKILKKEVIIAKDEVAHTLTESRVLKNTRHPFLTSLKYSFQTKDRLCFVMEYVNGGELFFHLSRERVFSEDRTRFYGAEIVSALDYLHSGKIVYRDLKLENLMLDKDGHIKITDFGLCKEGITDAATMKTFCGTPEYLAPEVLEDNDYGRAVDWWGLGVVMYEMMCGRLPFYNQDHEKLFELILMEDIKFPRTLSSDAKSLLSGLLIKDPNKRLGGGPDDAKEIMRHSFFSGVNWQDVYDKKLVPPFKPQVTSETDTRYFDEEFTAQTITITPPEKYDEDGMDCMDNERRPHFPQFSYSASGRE", "test": "HotSpot in vitro kinase assay, AKT3", "assay_type": "biochemical"}, "MDCK-MDR1 cells": {"test_system": "MDCK-MDR1 cells", "conditions": "5 μM"}, "HSV-2(G) [6]": {"test_system": "HSV-2(G)", "test": "Synchronized HSV infection (entry kinetics) plaque assay", "conditions": "10 μM, HaCat, 0.5, 1, 1.5 or 2 hours post-temperature shift"}, "AKT1": {"molecular_target": "T3, AKT1 (Homo sapiens, UniProt P31749)", "T3 construct": "purchased Reaction Biology Corporation", "T3 sequence (P31749 whole entry)": "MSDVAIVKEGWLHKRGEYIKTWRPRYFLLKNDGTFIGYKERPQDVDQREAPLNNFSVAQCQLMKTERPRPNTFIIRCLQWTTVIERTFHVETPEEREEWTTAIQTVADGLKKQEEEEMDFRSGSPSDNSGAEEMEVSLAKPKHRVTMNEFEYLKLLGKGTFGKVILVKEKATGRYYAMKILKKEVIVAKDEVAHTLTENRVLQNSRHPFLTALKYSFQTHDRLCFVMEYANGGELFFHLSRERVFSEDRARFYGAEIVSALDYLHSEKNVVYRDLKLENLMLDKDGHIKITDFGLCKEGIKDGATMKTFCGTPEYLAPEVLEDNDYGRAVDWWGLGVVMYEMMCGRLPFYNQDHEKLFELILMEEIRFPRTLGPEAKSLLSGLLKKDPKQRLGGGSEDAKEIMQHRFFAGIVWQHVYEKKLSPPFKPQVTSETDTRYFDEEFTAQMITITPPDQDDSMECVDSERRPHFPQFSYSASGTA", "test": "HotSpot in vitro kinase assay, AKT1", "assay_type": "biochemical"}, "PKCd": {"molecular_target": "PKCd (Homo sapiens, UniProt Q05655)", "sequence (Q05655 whole entry)": "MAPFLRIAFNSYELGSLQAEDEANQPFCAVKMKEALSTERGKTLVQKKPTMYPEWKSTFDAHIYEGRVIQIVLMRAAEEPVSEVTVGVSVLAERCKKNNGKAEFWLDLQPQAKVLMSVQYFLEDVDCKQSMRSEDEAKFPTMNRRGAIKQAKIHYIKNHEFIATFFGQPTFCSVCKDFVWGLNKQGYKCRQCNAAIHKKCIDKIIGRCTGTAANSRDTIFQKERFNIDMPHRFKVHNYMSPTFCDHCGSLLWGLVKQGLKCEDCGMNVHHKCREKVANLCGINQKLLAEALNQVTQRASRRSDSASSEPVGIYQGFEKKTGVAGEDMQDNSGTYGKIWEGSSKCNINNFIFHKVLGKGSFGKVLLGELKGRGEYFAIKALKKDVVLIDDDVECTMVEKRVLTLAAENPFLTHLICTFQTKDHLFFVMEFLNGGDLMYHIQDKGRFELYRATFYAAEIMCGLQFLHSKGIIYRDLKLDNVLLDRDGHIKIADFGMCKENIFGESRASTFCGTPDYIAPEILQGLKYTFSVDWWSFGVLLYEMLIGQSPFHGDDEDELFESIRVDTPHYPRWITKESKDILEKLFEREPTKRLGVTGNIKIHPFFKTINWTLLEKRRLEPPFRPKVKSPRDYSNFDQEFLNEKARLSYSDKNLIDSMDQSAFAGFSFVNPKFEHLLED", "test": "HotSpot in vitro kinase assay, PKCd", "conditions": "read-out: Compound IC50, PKCd; in vitro kinase activity"}, "c-Src": {"molecular_target": "c-Src (Homo sapiens, UniProt P12931)", "sequence (P12931 whole entry)": "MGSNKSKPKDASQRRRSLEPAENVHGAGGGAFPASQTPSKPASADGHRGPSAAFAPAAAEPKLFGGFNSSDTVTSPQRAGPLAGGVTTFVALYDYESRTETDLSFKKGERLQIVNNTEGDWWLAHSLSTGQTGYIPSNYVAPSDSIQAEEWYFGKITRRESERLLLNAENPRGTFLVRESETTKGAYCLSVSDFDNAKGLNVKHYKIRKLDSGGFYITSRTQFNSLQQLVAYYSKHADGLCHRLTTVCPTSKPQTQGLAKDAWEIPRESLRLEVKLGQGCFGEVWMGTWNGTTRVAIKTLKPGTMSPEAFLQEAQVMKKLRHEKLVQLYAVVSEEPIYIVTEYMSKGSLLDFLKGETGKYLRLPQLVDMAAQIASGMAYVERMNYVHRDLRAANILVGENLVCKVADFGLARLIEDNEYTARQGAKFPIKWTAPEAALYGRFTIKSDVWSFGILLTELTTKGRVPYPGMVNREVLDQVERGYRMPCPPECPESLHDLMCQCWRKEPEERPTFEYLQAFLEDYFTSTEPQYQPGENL", "test": "HotSpot in vitro kinase assay, c-Src", "conditions": "read-out: Compound IC50, c-Src; in vitro kinase activity"}, "HSV-2(G) [7]": {"test_system": "HSV-2(G)", "test": "Nuclear transport of VP16 (immunoblot of nuclear extracts)", "conditions": "HaCat and primary vaginal cells, 1 h post-infection; CIMSS 10 μM, antibody 2 μg/ml"}, "HaCat cells [8]": {"test_system": "HaCat cells", "test": "Apoptosis assays (activated caspases, SYTOX Green, cleaved PARP-1/caspase 8)"}, "HaCat cells [9]": {"test_system": "HaCat cells", "test": "Cell proliferation, ~50% confluent HaCat (Cell Titer 96 Aqueous One)"}}}
{"smiles": "CO[C@@H]1[C@H](N(C)C(=O)CCC(=O)NCc2cn(CCCS(=O)(=O)[O-])nn2)C[C@H]2O[C@]1(C)n1c3ccccc3c3c4c(c5c6ccccc6n2c5c31)C(=O)NC4.[Na+]", "note": "[CIMSS]", "values": [{"measurement": "extended Ca2+ release (first hour pi)", "setting": "intracellular Ca2+", "result": "significant reduction"}, {"measurement": "initial Ca2+ transient (first three minutes following HSV exposure)", "setting": "intracellular Ca2+", "result": "did not block"}, {"measurement": "phosphorylation of PLSCR1 after VSV-S", "setting": "PLSCR1 [1]", "result": "preserved"}, {"measurement": "IC50", "setting": "ABL1", "result": 143, "unit": "nM"}, {"measurement": "phosphorylation of PLSCR1 after HSV-2", "setting": "PLSCR1 [2]", "result": "not"}, {"measurement": "VSV-EBOV-GP infection, percentage of GFP+ cells", "setting": "VSV-EBOV-GP", "result": "no effect"}, {"measurement": "VSV-S infection (plaques or viral yields)", "setting": "[3]", "result": "inhibited"}, {"measurement": "VSV-S infection, percentage of GFP+ cells", "setting": "[3]", "result": "significantly reduced"}, {"measurement": "translocation of PtdS and Akt to the outer leaflet of the plasma membrane", "setting": "[4]", "result": "did not block"}, {"measurement": "IC50 for PDPK1 compared with staurosporine", "setting": "PDPK1", "result": "comparable"}, {"measurement": "IC50", "setting": "PDPK1; in vitro kinase activity, read-out: Compound IC50, PDPK1", "result": 0.278, "unit": "nM"}, {"measurement": "inhibition at 10 µM", "setting": "PDPK1; read-out: inhibition of PDPK1", "result": "> 75", "unit": "%"}, {"measurement": "extracellular phosphorylation of Akt (biotinylation, pAktT308)", "setting": "Akt, PDPK1", "result": "inhibited"}, {"measurement": "concentration without inhibition of intracellular Akt phosphorylation in response to insulin, relative to the parental drug", "setting": "[5]", "result": "100-1000 fold"}, {"measurement": "dose inhibiting intracellular Akt phosphorylation in response to insulin", "setting": "[5]; HaCat, 10 μM insulin, permeabilized cells", "result": "> 100", "unit": "µM"}, {"measurement": "VSV-G infection, percentage of GFP+ cells", "setting": "VSV-G", "result": "no effect"}, {"measurement": "IC50", "setting": "AKT3; in vitro kinase activity, read-out: Compound IC50, AKT3", "result": 157, "unit": "nM"}, {"measurement": "inhibition at 10 µM", "setting": "AKT3; read-out: inhibition of Akt3", "result": "> 75", "unit": "%"}, {"measurement": "Recover %, MDCK Transport", "setting": "MDCK-MDR1 cells", "result": 96, "unit": "%"}, {"measurement": "viral plaque formation, synchronized infection", "setting": "HSV-2(G) [6]", "result": "significant reduction"}, {"measurement": "fold less effective than staurosporine (IC50), Akt1", "setting": "AKT1", "result": "~230", "unit": "fold"}, {"measurement": "IC50", "setting": "AKT1; in vitro kinase activity, read-out: Compound IC50, AKT1", "result": 461, "unit": "nM"}, {"measurement": "inhibition at 10 µM", "setting": "AKT1; read-out: inhibition of Akt1", "result": "> 75", "unit": "%"}, {"measurement": "IC50", "setting": "PKCd", "result": 3.64, "unit": "nM"}, {"measurement": "IC50", "setting": "c-Src", "result": 11.9, "unit": "nM"}, {"measurement": "nuclear transport of VP-16", "setting": "HSV-2(G) [7]", "result": "inhibited"}, {"measurement": "induction of apoptosis (SYTOX Green and anti-caspase staining)", "setting": "HaCat cells [8]; 10 μM, 6 or 24 hours", "result": "did not induce apoptosis"}, {"measurement": "PARP-1 or caspase 8 cleavage", "setting": "HaCat cells [8]; 0.1, 1 or 10 μM, 8 hours", "result": "did not induce PARP-1 or caspase 8 cleavage"}, {"measurement": "lowest concentration significantly inhibiting HaCat cell growth", "setting": "HaCat cells [9]; 24 h", "result": "no significant inhibition"}, {"measurement": "lowest concentration significantly inhibiting HaCat cell growth", "setting": "HaCat cells [9]; 72 h", "result": 100, "unit": "µM"}]}
